Measured values taken from patent US20250313574A1, “SIALIC ACID DERIVATIVES AND METHODS OF USING SAME” (EISAI R&D MANAGEMENT CO., LTD., priority 2022, published 2025).

Assays:
[1] = molecular target: Recombinant Human Siglec-3/CD33 protein (His-CD33) (Homo sapiens (Human), UniProt P20138); experiment: Differential scanning fluorimetry (DSF) thermal shift assay; format: binding
[2] = molecular target: Recombinant human CD33 protein (Homo sapiens (Human), UniProt P20138); experiment: CD33 competitive binding assay for HTS drug screen (fluorescent multivalent sialic acid probe)
In short: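 Recombinant human CD33, coated overnight at 4° C from 10 μg/ml in pH 5.5 acetate, was preincubated briefly with compound. It was then exposed to a multivalent neutravidin/FITC/sialic acid analog A-375 probe (final 5 μM neutravidin, 15 μM A-375, 5 μM FITC) for 30 min at room temperature. After washing, bound FITC fluorescence was read.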

[3] = difference in thermal melt of CD33 protein (0.5 μM) with 50 μM compound
[4] = thermal melt shift of 0.5 μM CD33 protein with 50 μM compound

Sequence of Recombinant human CD33 protein (P20138 18-259): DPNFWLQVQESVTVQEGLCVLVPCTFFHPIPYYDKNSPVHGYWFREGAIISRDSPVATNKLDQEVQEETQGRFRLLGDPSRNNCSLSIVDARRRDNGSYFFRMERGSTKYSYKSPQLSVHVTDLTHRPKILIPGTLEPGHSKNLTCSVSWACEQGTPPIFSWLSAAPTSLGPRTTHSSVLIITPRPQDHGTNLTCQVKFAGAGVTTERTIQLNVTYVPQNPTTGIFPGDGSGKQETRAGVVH
Sequence of Recombinant Human Siglec-3/CD33 protein (His-CD33) (P20138 18-259): as above

SMILES | DSF (dTmD) [1, 3] | EC50 [2] | DSF (dTmD) [1, 4]
CC(=O)N[C@H]1[C@H]([C@H](O)[C@H](O)CNC(=O)c2cc(C)c(O)c(C)c2)O[C@@](C/C=C/c2cccc(CNC(=O)c3ccc4[nH]cnc4c3)c2)(C(=O)O)C[C@@H]1O [A-236] | 4.4 °C | 2.01 µM | –
CC(=O)N[C@H]1[C@H]([C@H](O)[C@H](O)CNC(=O)c2cc(C)c(O)c(C)c2)O[C@@](CCN2CCOC[C@@]23CCN(C(=O)NC(C)(C)C)C3)(C(=O)O)C[C@@H]1O [A-042] | – | 0.012 µM | 13.3
CC(=O)N[C@H]1[C@H]([C@H](O)[C@H](O)CNC(=O)c2cc(C)c(O)c(C)c2)O[C@@](CCN2CCOC[C@@]23CCN(C(=O)OC(C)(C)C)C3)(C(N)=O)C[C@@H]1O [A-364] | 0.1 °C | > 100 µM | –
Cc1cc(C(=O)NC[C@@H](O)[C@@H](O)[C@@H]2O[C@@](C/C=C/c3cccc(CNC(=O)C4CCCOC4)c3)(C(=O)O)C[C@H](O)[C@H]2NC(=O)Cn2cc(C3CCCCC3)nn2)cc(C)c1O (some centres unmarked) [A-268] | 6.2 °C | 1.32 µM | –
Cc1cc(C(=O)NC[C@@H](O)[C@@H](O)[C@@H]2O[C@@](C/C=C/c3cccc(CNC(=O)C4CCC(NS(C)(=O)=O)CC4)c3)(C(=O)O)C[C@H](O)[C@H]2NC(=O)Cn2cc(C3CCCCC3)nn2)cc(C)c1O (some centres unmarked) [A-281] | 6.9 °C | 1.52 µM | –
CC(=O)N[C@H]1[C@H]([C@H](O)[C@H](O)CNC(=O)c2cccc(C)c2)O[C@@](CCN2CCOC[C@@]23CCN(C(=O)OC(C)(C)C)C3)(C(=O)O)C[C@@H]1O [A-181] | – | 0.07 µM | 10.9
C/C=C/C=C/C(=O)NC[C@@H](O)[C@@H](O)[C@@H]1O[C@@](CCN2CCOC[C@@]23CCN(C(=O)OC(C)(C)C)C3)(C(=O)O)C[C@H](O)[C@H]1NC(C)=O [A-163] | – | 0.7 µM | 5.7
CC(=O)N[C@H]1[C@H]([C@H](O)[C@H](O)CNC(=O)c2cc(C)c(O)c(C)c2)O[C@@](CC2OC(C)(C)O[C@H]2c2cccc(NC(=O)OC(C)(C)C)c2)(C(=O)O)C[C@@H]1O (some centres unmarked) [A-296] | 6.4 °C | 0.477 µM | –
CC(=O)N[C@H]1[C@H]([C@H](O)[C@H](O)CNC(=O)c2coc(C)c2)O[C@@](CCN2CCOC[C@@]23CCN(C(=O)OC(C)(C)C)C3)(C(=O)O)C[C@@H]1O [A-158] | – | 0.133 µM | 10.4
CC(=O)N[C@H]1[C@H]([C@H](O)[C@H](O)CNC(=O)c2cc(C)c(O)c(C)c2)O[C@@](CCN2CCOC[C@@]23CCN(C(=O)NCc2ccccc2)C3)(C(=O)O)C[C@@H]1O [A-079] | – | 0.152 µM | 9.1
CC(=O)N[C@H]1[C@H]([C@H](O)[C@@](C)(O)CNC(=O)c2cc(C)c(O)c(C)c2)O[C@@](CCN2CCOC[C@@]23CCN(C(=O)OC(C)(C)C)C3)(C(=O)O)C[C@@H]1O [A-205] | 3.5 °C | 1.82 µM | –
CC(=O)N[C@H]1[C@H]([C@H](O)[C@H](O)CNC(=O)c2cc(C)c(O)c(C)c2)O[C@@](CCN2CCNC[C@]23CCN(C(=O)OC(C)(C)C)C3)(C(=O)O)C[C@@H]1O [A-013] | – | 0.035 µM | 11.4
CNC(=O)c1c(C)cc(C(=O)NC[C@@H](O)[C@@H](O)[C@@H]2O[C@@](CCN3CCOC[C@@]34CCN(C(=O)OC(C)(C)C)C4)(C(=O)O)C[C@H](O)[C@H]2NC(C)=O)cc1C [A-164] | – | 1.56 µM | 5.3
Cc1cc(C(=O)NC[C@@H](O)[C@@H](O)[C@@H]2O[C@@](C/C=C/c3cccc(CNC(=O)C4C5OCCC[C@H]54)c3)(C(=O)O)C[C@H](O)[C@H]2NC(=O)Cn2cc(C3CCCCC3)nn2)cc(C)c1O (some centres unmarked) [A-272] | 4.9 °C | 9.64 µM | –
Cc1cc(C(=O)NC[C@@H](O)[C@@H](O)[C@@H]2O[C@@](OC3CCCCC3NC(=O)Cn3cc(CNC(=O)N4CCOCC4)nn3)(C(=O)O)C[C@H](O)[C@H]2NC(=O)Cn2cc(C3CCCCC3)nn2)cc(C)c1O (some centres unmarked) [A-334] | 2.8 °C | 7.7 µM | –
C=CC[C@@]1(NCC[C@]2(C(=O)O)C[C@H](O)[C@@H](NC(C)=O)[C@H]([C@H](O)[C@H](O)CNC(=O)c3cc(C)c(O)c(C)c3)O2)CCN(C(=O)OC(C)(C)C)C1 [A-032] | – | 0.181 µM | 8.4
C=CC[C@]1(NCC[C@]2(C(=O)O)C[C@H](O)[C@@H](NC(C)=O)[C@H]([C@H](O)[C@H](O)CNC(=O)c3cc(C)c(O)c(C)c3)O2)CCN(C(=O)OC(C)(C)C)C1 [A-033] | – | 1.61 µM | 6.1
CC(=O)N[C@H]1[C@H]2O[C@](C(=O)O)(C/C=C/CCC[C@@H](NC(=O)[C@H]3CCCOC3)c3cccc(c3)COc3c(C)cc(cc3C)C(=O)NC[C@@H](O)[C@H]2O)C[C@@H]1O [A-355] | 1.3 °C | 35.4 µM | –
CC(=O)N[C@H]1[C@H]([C@H](O)[C@H](O)CNC(=O)c2ccc(O)c(NC=O)c2)O[C@@](CCN2CCOC[C@@]23CCN(C(=O)OC(C)(C)C)C3)(C(=O)O)C[C@@H]1O [A-152] | – | 0.51 µM | 7.4

SMILES | DSF (dTmD) [1, 3] | EC50 [2] | DSF (dTmD) [1, 4]
CC(=O)N[C@H]1[C@H]([C@H](O)[C@H](O)CNC(=O)c2cc(C)c(O)c(C)c2)O[C@@](C/C=C/c2cc(CNC(=O)C3CCCOC3)ccc2C)(C(=O)O)C[C@@H]1O (some centres unmarked) [A-290] | 2.0 °C | 20.4 µM | –
CC(=O)N[C@H]1[C@H]([C@H](O)[C@H](O)CNC(=O)c2cc(C)c(O)c(C)c2)O[C@@](CC2OC(C)(C)O[C@H]2c2cccc(CN3CCOCC3)c2)(C(=O)O)C[C@@H]1O (some centres unmarked) [A-313] | 0.0 °C | 11.9 µM | –
CC(=O)N[C@H]1[C@H]([C@H](O)[C@H](O)CNC(=O)c2cc(C)c(O)c(C)c2)O[C@@](CCN2CCOC[C@@]23CCN(c2cc(C4CC4)ccn2)C3)(C(=O)O)C[C@@H]1O [A-036] | – | 0.016 µM | 12.5
CC(=O)N[C@H]1[C@H]([C@H](O)[C@H](O)CNC(=O)c2ccc(O)c(C)c2)O[C@@](CCN2CCOC[C@@]23CCN(C(=O)OC(C)(C)C)C3)(C(=O)O)C[C@@H]1O [A-117] | – | 0.028 µM | 12.4
CC(=O)N[C@H]1[C@H]([C@H](O)[C@H](O)CNC(=O)c2cc(C)c(O)c(C)c2)O[C@@](CCN2CCN(C(C)=O)C[C@@]23CCN(C(=O)OC(C)(C)C)C3)(C(=O)O)C[C@@H]1O [A-014] | – | 0.019 µM | 12.3
CC(=O)N[C@H]1[C@H]([C@H](O)[C@H](O)CNC(=O)c2cc(C)c(O)c(C)c2)O[C@@](CCNC2(C)CCN(C(=O)OC(C)(C)C)C2)(C(=O)O)C[C@@H]1O (some centres unmarked) [A-026] | – | 0.83 µM | 9.2
CC(=O)N[C@H]1[C@H]([C@H](O)[C@H](O)CNC(=O)c2cc(C)c(O)c(C)c2)O[C@@](CCN2CCOC[C@@]23CCN(C(=O)NC24CC5CC(CC(C5)C2)C4)C3)(C(=O)O)C[C@@H]1O [A-049] | – | 0.041 µM | 13.5
CC(=O)N[C@H]1[C@H]([C@H](O)[C@H](O)CNC(=O)c2cc(C)c(O)c(C)c2)O[C@@](CCN2CCOC[C@@]23CCN(C(=O)C2CC4(C2)CC(F)(F)C4)C3)(C(=O)O)C[C@@H]1O [A-069] | – | 0.123 µM | 8.3
CC(=O)N[C@H]1[C@H]([C@H](O)[C@H](O)CNC(=O)c2cc(C)c(O)c(C)c2)O[C@@](C/C=C/c2cccc(CNC(=O)c3ccc4[nH]nnc4c3)c2)(C(=O)O)C[C@@H]1O [A-237] | 0.8 °C | 5.03 µM | –
CC(=O)N[C@H]1[C@H]([C@H](O)[C@H](O)CNC(=O)c2cc(C)c(O)c(C)c2)O[C@@](CCN2CCOC[C@]23CCN(C(=O)OC(C)(C)C)C3)(C(=O)O)C[C@@H]1O [A-003] | – | 1.14 µM | 5.12
CC(=O)N[C@H]1[C@H]([C@H](O)[C@H](O)CNC(=O)c2cnn(C)c2)O[C@@](CCN2CCOC[C@@]23CCN(C(=O)OC(C)(C)C)C3)(C(=O)O)C[C@@H]1O [A-177] | – | 0.67 µM | 7.5
CC(=O)N[C@H]1[C@H]([C@H](O)[C@H](O)CNC(=O)c2cc(C)c(O)c(C)c2)O[C@@](C/C=C/C2(C)CCN(C(=O)OC(C)(C)C)C2)(C(=O)O)C[C@@H]1O (some centres unmarked) [A-195] | – | 0.042 µM | 10.8
CC(=O)N[C@H]1[C@H]([C@H](O)[C@H](O)CNC(=O)c2cc(C)c(O)c(C)c2)O[C@@](CCN2CCOC[C@@]23CCN(C(=O)C2(C)CCCCC2)C3)(C(=O)O)C[C@@H]1O [A-071] | – | 0.041 µM | 11.0
CC(=O)N[C@H]1[C@H]([C@H](O)[C@H](O)CNC(=O)c2cc(C)c(O)c(C)c2)O[C@@](C/C=C/c2cccc(CNC(=O)c3ccc4[nH]c(CCO)cc4c3)c2)(C(=O)O)C[C@@H]1O [A-248] | 6.0 °C | 0.682 µM | –
CC(=O)N[C@H]1[C@H]([C@H](O)[C@H](O)CNC(=O)c2cc(C)c(O)c(C)c2)O[C@@](C/C=C/c2cccc(CNC(=O)c3ccc(NS(C)(=O)=O)cc3)c2)(C(=O)O)C[C@@H]1O [A-239] | 2.2 °C | 1.12 µM | –
CC(=O)N[C@H]1[C@H]([C@H](O)[C@H](O)CNC(=O)c2cc(C)c(O)c(C)c2)O[C@@](C/C=C/c2cccc(CNC(=O)c3cccc(NCc4nc(C)cs4)c3)c2)(C(=O)O)C[C@@H]1O [A-245] | 1.2 °C | 9.46 µM | –
CC(=O)N[C@H]1[C@H]([C@H](O)[C@H](O)CNC(=O)c2cc(C)c(O)c(C)c2)O[C@@](CCN2CCOC[C@@]23CCN(C(=O)N(C)c2ccccc2)C3)(C(=O)O)C[C@@H]1O [A-059] | – | 0.06 µM | 9.3
CC(=O)N[C@H]1[C@H]2O[C@](C(=O)O)(CCCCOC[C@@H](NC(=O)C3CCCOC3)COCCOc3c(C)cc(cc3C)C(=O)NC[C@@H](O)[C@H]2O)C[C@@H]1O (some centres unmarked) [A-342] | 1.5 °C | 45.4 µM | –
